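96-well plates; 48 h exposure; 5 concentrations. Endpoints by linear interpolation between flanking doses. Not reached: highest tested concentration assigned. GI50 is the concentration that inhibits growth by half.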 Active and inactive are the calls of the source. Cut-off read from the data, not from the text of the source: active = GI50 up to about 1.1 µM and inactive = higher.
Columns and labels:
Assay in all cases: NCI anticancer screen, dose series, 48 h
SR = tested on: SR
SW-620 = tested on: SW-620
CAKI-1 = tested on: CAKI-1
EKVX = tested on: EKVX
NCI-H226 = tested on: NCI-H226
DMS-114 = tested on: DMS-114
NCI-H460 = tested on: NCI-H460
RXF 393 = tested on: RXF 393
SK-MEL-2 = tested on: SK-MEL-2
U-251 = tested on: U-251
SNB-75 = tested on: SNB-75
SNB-78 = tested on: SNB-78
DMS-273 = tested on: DMS-273
SF-268 = tested on: SF-268
CCRF-CEM = tested on: CCRF-CEM
MDA-MB-231 = tested on: MDA-MB-231
MCF7 = tested on: MCF7
SF-295 = tested on: SF-295
NCI/ADR-RES = tested on: NCI/ADR-RES
HCT-116 = tested on: HCT-116

Row | SMILES | GI50 (SR) | GI50 (SW-620) | GI50 (CAKI-1) | GI50 (EKVX) | GI50 (NCI-H226) | GI50 (DMS-114) | GI50 (NCI-H460) | GI50 (RXF 393) | GI50 (SK-MEL-2) | GI50 (U-251) | GI50 (SNB-75) | GI50 (SNB-78) | GI50 (DMS-273) | GI50 (SF-268) | GI50 (CCRF-CEM) | GI50 (MDA-MB-231) | GI50 (MCF7) | GI50 (SF-295) | GI50 (NCI/ADR-RES) | GI50 (HCT-116)
1 | COc1cc(C2c3cc4c(cc3[C@@H](Nc3ccc(N)cc3)C3COC(=O)[C@H]23)OCO4)cc(OC)c1O (some centres undefined) | 0.205 µM (active) | 2.14 µM (inactive) | 0.446 µM (active) | 3.64 µM (inactive) | 1.19 µM (inactive) | 1.59 µM (inactive) | 0.0557 µM (active) | 3.91 µM (inactive) | 5.73 µM (inactive) | 0.401 µM (active) | 1.94 µM (inactive) | 9.16 µM (inactive) | 0.361 µM (active) | 1.63 µM (inactive) | 0.222 µM (active) | 12.3 µM (inactive) | 0.0451 µM (active) | 0.403 µM (active) | 3.75 µM (inactive) | 2.7 µM (inactive)
2 | O=C(Nc1ccc(Cl)cc1)NS(=O)(=O)c1ccc2c(c1)CCC2 [SULOFENUR] | > 57 µM (inactive) | 35.3 µM (inactive) | 42.9 µM (inactive) | 36.5 µM (inactive) | 37.9 µM (inactive) | 35.2 µM (inactive) | 24.4 µM (inactive) | 27.9 µM (inactive) | 43.8 µM (inactive) | 30.7 µM (inactive) | > 55.6 µM (inactive) | > 47 µM (inactive) | 32.4 µM (inactive) | 49.2 µM (inactive) | 29.9 µM (inactive) |  | 24.1 µM (inactive) | 46.7 µM (inactive) |  | 26.2 µM (inactive)
3 | N=C1OC(c2cccc(Cl)c2)C(NNS(=O)(=O)c2ccccc2)=C1O (centres undefined) | 2.37 µM (inactive) | 12.8 µM (inactive) | 31.4 µM (inactive) | 68.4 µM (inactive) | 43.9 µM (inactive) | 17.9 µM (inactive) | 44.1 µM (inactive) | 15.7 µM (inactive) | 24.9 µM (inactive) | 33.3 µM (inactive) | 26.9 µM (inactive) | 27.4 µM (inactive) | 32.4 µM (inactive) | 39.7 µM (inactive) | 2.32 µM (inactive) | 18.2 µM (inactive) | 22.4 µM (inactive) | 57 µM (inactive) |  | 21.3 µM (inactive)
4 | N=C(NC(=S)N1CCCCC1)N1CCCCC1 | > 100 µM (inactive) | > 100 µM (inactive) | > 100 µM (inactive) | > 100 µM (inactive) | 5.71 µM (inactive) | > 100 µM (inactive) | > 100 µM (inactive) | > 100 µM (inactive) | > 100 µM (inactive) | > 100 µM (inactive) | > 100 µM (inactive) | > 100 µM (inactive) | > 100 µM (inactive) | > 100 µM (inactive) | > 100 µM (inactive) |  |  | > 100 µM (inactive) |  | > 100 µM (inactive)

Source: ChEMBL document CHEMBL1201862, “PubChem BioAssay data set” (2004)
